Measured values from US5792742A, “Fibrin-binding peptide fragments of fibronectin” (New York University, priority 1994, dated 1998).
“Also recorded” adds a separate entry of the source. Where two headings read alike, the source gives them in different places.

Tests used:
fibrin [1] = assay: Binding of 35S-methionine labeled recombinant proteins (COS cell supernatants) to fibrin-SEPHAROSE, autoradiogram quantitation
Description: Recombinant proteins from both the N-terminal and C-terminal fibrin binding sites of the Fn molecule were expressed by transfection into ^35 S-labeled (methionine) COS cells, as described by Schwarzbauer, J. Cell Biol., 113:1463-1473 and Sottile et al, J. Biol. Chem., 266:12840-12843, (1991) and their fibrin-binding activity determined by affinity chromatography experiment. The ^35 S-methionive labeled protein from the N-terminal site was a 10.5 kDa protein that comprised the ^4 F1.^5 F1 modules (^4 F1.^5 F1). The ^35 S-methionive labeled 25 kDa recombinant protein from the C-terminal fibrin binding site of Fn expressed by the COS cells commenced in the ^10 F1 and extended to the end of the molecule (^10 F1-end). For the affinity chromatography experiments each of the cell culture supernatants that contained the separately expressed proteins (1.5 ml) were combined with 0.4 ml of a fibrin-SEPHAROSE affinity matrix and incubated overnight at 4 C. with end over rotation. Upon removal of the supernatant by centrifugation, the matrices were washed extensively with FBB (10 times with a 0.5 ml wash volume each ); after each wash the matrices were centrifuged and the supernatants removed. […] Aliquots (50 ul) of each fraction was counted in a LS 6000 Scintilation Counter, the corresponding fractions pooled, and analyzed by SDS-PAGE followed by autoradiography. The autoradiograms were exposed for two weeks and scanned with a pdi Desktop Scanner. […] As a control, to indicate the relative level of expression of the recombinant proteins and to confirm their position in the autoradiograms, an aliquot of each COS cell culture supernatant was immunoprecipited with an anti-fibronectin antibody and compared with the ^35 S-labeled proteins retained by the fibrin affinity chromatography matrices by SDS-PAGE and autoradiography. […] The Protein A-Sepharose beads were separated by centrifugation, washed two times with Tris-buffered saline, resuspended in Laemmli sample buffer and applied to SDS-PAGE.
FIG. 30 illustrates the binding of ^35 S-methionine labeled recombinant modules from both the N- (^4 F1.^5 F1) and C-terminal (^10 F1-end) fibrin binding sites of Fn to fibrin-SEPHAROSE affinity matrices. […] The results of the autoradiograms are represented by the graphs which indicate the image analysis of the bound recombinant proteins.

fibrin [2] = assay: Reversibility (displacement) of 125I-11 kDa FBP binding to fibrin; settings: negative control
Description: Detachable microtiter wells previously coated with 15 ng of fibrin were incubated with 100 ng/0.1 ml FBB (90 nM) of ^125 I-11 kDa for 1 hour at 22° C. The unbound radiolabeled protein was removed by extensive washing with FBB containing 0.1% Tween 20. […] The iodinated 11 kDa that remained bound to the removable wells was determined by quantitating the radioactivity attached to the individual wells in a gamma counter. Results were expressed as percentage of control wells incubated with buffer alone.

fibrin [3] = assay: ELISA: competitive inhibition of fibronectin binding to fibrin by type 1 recombinant modules; settings: for maximum inhibition of Fn binding to fibrin: saturating concentration
Description: Fibrin-binding activity was also assessed by an ELISA. Fn was reacted with fibrin-coated microtiter plates and bound Fn was determined by incubation with a polyclonal rabbit anti-Fn antiserum followed by alkaline phosphatase-labeled anti-rabbit Ig. […] Thus, on a mole-per-mole basis, assuming complete attachment of all the fibrinogen applied to the polystyrene plate, total proteolytic conversion to fibrin, and accessibility of the binding sites, 0.8 moles of Fn per mole of fibrin were required to achieve maximum binding (assuming a molecular weight of 340 kDa for the fibrin hexamer and 440 kDa for the Fn dimer).
The recombinant Fn modules were used to inhibit the binding of Fn to the fibrin-coated microtiter plates. […] At this saturating concentration, the binding of Fn to fibrin was inhibited by 70%.

fibrin [4] = assay: Direct binding ELISA on fibrin-coated microtiter plates; settings: for binding to fibrin-coated wells: ELISA, room temperature, 1 hr
Description: The preparation of fibrin coated microtiter plates was adapted from a method described by Christman et al., Biochim. Biophys. Acta. […] Microtiter (Immulon) plates were coated with fibrinogen at a concentration of 50-1000 ng/well/0.1 ml of Tris buffered saline (TBS). The plates were dried for 24 hours at 37° C. and 0.1 ml of thrombin (20 NIH units/100 ml) containing TRASYLOL™ (aprotinin) (400 K.I units/100 ml) in TBS was added to each well and the plates incubated for 2 hours at 37° C. Each well is washed one time with PBS and the plates are blocked for 1.5 hours with 1% BSA in TBS to prevent non-specific binding. A constant concentration of fibronectin and the 11 kDa fibrin-binding polypeptide (500 ng/0.1 ml) in 50 mM Tris-HCl, 0.1M NaCl, pH 7.6 (FBB) were incubated separately with fibrin coated microtiter wells (50-1000 ng) for 1 hr at room temperature (23° C.).
The wells were washed three times with FBB containing 0.05% Tween 20 (FBBT) and incubated for 1 hour with 0.05 ml of the a polyclonal anti-fibronectinantiserum (Calbiochem) or the purified IgG fraction of anti-11 kDa rabbit antisera, respectively, at a concentration of 1 μg/ml in FBBT containing 0.1% BSA (FBBT/BSA). Following three washes with FBBT, the wells were incubated with 0.05 ml of alkaline phosphatase labeled goat anti-rabbit IgG (TAGO) at a concentration of 2 μg/ml in FBBT/BSA, for 1 hour. The reaction was developed with 0.05 ml of […] p-nitrophenyl phosphate (Sigma phosphatase substrate tablets) in 10% diethanolamine, pH 9.8 containing 1 mM MgCl2.
2. […] Binding of ^4 F1.^5 F1 to fibrin coated microtiter plates was examined by ELISA as described above. Microtiter wells were coated with fibrin (50-1000 ng) and blocked, as described earlier, and incubated with the module pair ^4 F1.^5 F1 (500 ng/0.1 ml or 1000 ng/0.1 ml in FBB) for 1 hour, at room temperature.
Fibrin-binding activity was also assessed by an ELISA. Fn was reacted with fibrin-coated microtiter plates and bound Fn was determined by incubation with a polyclonal rabbit anti-Fn antiserum followed by alkaline phosphatase-labeled anti-rabbit Ig.

fibrin [5] = settings: for IC50: read-out: IC50, 50% inhibition of binding of biotinylated Fn to fibrin, 200 ng fibrin, 1 hour 22° C.
Description: Since the anti-Fn detection system described for the ELISA above could not be used in Fn competition assays employing the intact Fn molecule or the 25.8 kDa proteolytic fragment, purified Fn was biotinylated using water soluble NHS-LC-Biotin (Pierce Chemm. Co.; according to the manufacturer's instructions) and binding to fibrin detected by alkaline phosphatase conjugated streptavidin (diluted 1/500 in FBBT/BSA) for 1 hour at 22° C., followed by the addition of p-nitrophenyl phosphate, as described above. To ensure that the biotinylation of the Fn had not affected its ability to bind to fibrin, fibrin-binding activity was tested by incubating increasing concentrations of biotinylated Fn (10-300 ng/0.1 ml FBB) with the fibrin-coated wells (200 ng) and detected (see FIG. 28A) using alkaline phosphatase-conjugated streptavidin and the reaction developed as described for Direct Elisa.
To compare the relative fibrin-binding affinities of the ^4 F1.^5 F1 recombinant module pair and the 25.9 kDa proteolytic fragment (^1 F1-^5 F1) with that of the native Fn molecule, these purified proteins were competed with biotinylated plasma Fn for binding to fibrin coated wells and the extent of inhibition of binding assessed by incubation with alkaline phosphatase-conjugated streptavidin. […] Biotinylated Fn (100 ng/0.1 ml FBB: 2.3 nM) was combined with increasing concentrations (0-10 μM) of either unlabeled Fn, the 25.9 kDa proteolytic fragment, or the separate ^4 F1.^5 F1, and ^10 F1 recombinant modules and incubated with the fibrin-coated microtiter wells for 1 hour at 22° C. […] Bound biotinylated Fn was quantitated as described above.

fibrin [6] = assay: Fibrin-SEPHAROSE affinity chromatography (binding and elution); set-up: species or system bovine
Description: Bovine fibrinogen was cross-linked to CNBr-activated SEPHAROSE™ (5 mg/ml beads) according to the manufacturer's instructions. Coupled fibrinogen was subsequently converted to fibrin by incubation with human thrombin to a final concentration of 5 NIH units/ml and 100 K.I. (kallikrein inhibitory) units/ml of aprotinin (in 0.05M Tris-HCI buffer, pH 7.6, containing 0.1M NaCl and 0.01M EDTA) for three hours, at room temperature (Gold, et al. (1983) Biochemistry 22, 4113-4119).
1.0M NaCl in 0.05M tris buffer, pH 8.0.
The fibrin-binding activity of the proteolytically derived 25.9 kDa fragment of Fn was determined by its ability to bind to a fibrin affinity matrix. […] FBB was used to equilibrate and wash the column. Following warming of the column to 22° C., the column was washed with FBB until absorbance at 280 nm (A280) was less than 0.01, and bound protein eluted with 0.05M Tris-HCl, 0.5M NaCl, 6M urea buffer, pH 7.6.
The module (500 μg/1.0 ml) was incubated for 4 hours (while rotating) at 4° C. in the presence of 1.0 ml fibrin-SEPHAROSE™ (5 mg fibrin/ml SEPHAROSE™ beads) equilibrated in […] Tris-HCl, 0.1M NaCl buffer, pH 7.6.
The 11 KDa peptide (50 μg/0.206 ml) was radiolabeled using the IODO-BEAD method (Pierce Chemical). The peptide was added to one IODO-BEAD in the presence of 100 μCi ^125 I (17.4 Ci/mg, New England Nuclear) and incubated on ice for 10 minutes. The bead was removed and the free ^125 I removed by chromatography through a PD10 column containing SEPHADEX™ G-25 (Pharmacia). […] The radioiodinated 11 kDa fibrin-binding peptide (500 μg/1.5 ml) was combined with 1 ml of fibrin-SEPHAROSE™ (5 mg fibrin/ml beads) equilibrated with 50 mM Tris-HCl, 0.1M NaCl buffer, pH 7.6, and rotated for 4 hours, at 4° C. The mixture was poured onto a disposable column (0.6 cm×8.0) and the unbound protein washed through. The column was equilibrated to room temperature and washed with the equilibration buffer.

[7] = 35S-methionine labeled, optical density of autoradiogram

^10 F1-end: 25 kDa recombinant protein from COS cells commencing in the tenth type 1 module and extending to the end of fibronectin
relative affinity for fibrin (fibrin [1]): higher relative affinity
% of bound protein released by warming to 22° C. (fibrin [1]; [7]): 35%
% of bound protein requiring 6M urea in 0.5M NaCl for elution (fibrin [1]; [7]): 65%

egg lysozyme: unrelated protein employed as negative control
displacement of bound 125I-11 kDa FBP (fibrin [2]): unable to disrupt; also recorded: unable to displace

t-PA type 1 module: single type 1 module from tissue plasminogen activator (CRDEKTQMIYQQHQSWLRPVLRSNRVEYCWCNSGRAQCH) [reference compound]
maximum inhibition of Fn binding to fibrin (fibrin [3]): 55%

fibronectin: purified intact human plasma fibronectin, 440 kDa dimer [reference compound]
amount giving maximum binding per 550 ng of fibrin (fibrin [4]): approximately 500 ng
concentration at saturation of binding to fibrin (fibrin [4]; 200 ng Fn to 200 ng of fibrin (5.88 nM)): ~4.54 nM
binding to fibrin-coated wells (fibrin [4]): bound to the fibrin-coated wells in a concentration dependent manner
moles per mole of fibrin required to achieve maximum binding (fibrin [4]; assuming 340 kDa fibrin hexamer, 440 kDa Fn dimer): 0.8
concentration required for complete inhibition of biotinylated Fn binding (fibrin [5]; biotinylated Fn 2.3 nM): 2.2 µM
molar excess required for complete inhibition (fibrin [5]; biotinylated Fn 2.3 nM): 1000
IC50 (fibrin [5]; biotinylated Fn 2.3 nM): 20 nM

^7 F1: recombinant seventh type 1 module from human fibronectin, residues 434-484 of SEQ ID NO:1 [reference compound]
binding to fibrin-Sepharose (fibrin [6]): did not bind
inhibition of the binding of Fn to fibrin (non-binding modules) (fibrin [3]; up to 5,000-50,000 molar excess compared to Fn): < 20%

^4 F1.^5 F1: recombinant 93 amino acid module pair, fourth and fifth type 1 modules of human fibronectin, residues 152-244 of SEQ ID NO:1
elution of protein remaining bound after warming to 22° C. with 1.0M urea and finally 2.0M urea (fibrin [6]): eluted all the remaining bound
elution of protein remaining bound after warming to 22° C. with 1.0M NaCl (fibrin [6]; 18% of total protein applied remained bound): could not be eluted
% of protein applied eluted on warming the column to 22° C. (room temperature) (fibrin [6]; FBB buffer): 9%
% of protein applied eluted with 0.5M NaCl, 6.0M urea buffer (fibrin [6]; after warming to 22° C.): 18%
% of protein applied retained by fibrin-SEPHAROSE (fibrin [6]; binding at 4° C., 500 μg applied): 27%
% of protein applied retained by fibrin-Sepharose with increasing amounts applied (fibrin [6]; increasing amounts applied to a fixed volume of fibrin-Sepharose): 25%
relative affinity for fibrin (fibrin [1]): lower affinity
% of bound protein released by warming to 22° C. (fibrin [1]; [7]): 88%
binding to fibrin-coated wells (fibrin [4]): bound to fibrin
concentration at which maximum inhibition was achieved (fibrin [3]; Fn 2.3 nM): 10 µM
molar excess at maximum inhibition (fibrin [3]; Fn 2.3 nM): 5,000
molar excess over Fn at 50% inhibition (fibrin [3]; Fn 2.3 nM): 325
IC50 (fibrin [3]; Fn 100 ng (2.3 nM), fibrin 200 ng, read-out: concentration decreasing Fn binding to fibrin to 50%): 750 nM
maximum inhibition of Fn binding to fibrin (fibrin [3]): 70%
amount relative to antibody (w/w) used to obtain maximal inhibition (fibrin [5]): 16 times
blocked binding of fibronectin to fibrin (summary, FIG. 29) (fibrin [5]): 36%
maximal inhibition of biotinylated Fn binding to fibrin (fibrin [5]; 10 μM of protein (5,000 molar excess)): 67%
maximum inhibition of Fn binding to fibrin (FIG. 29) (fibrin [5]; 0.1-25 μg inhibitor, biotinylated Fn 100 ng, fibrin 200 ng): 67%
IC50 (fibrin [5]; biotinylated Fn 2.3 nM): 700 nM

^10 F1: recombinant 46 amino acid tenth type 1 module from human fibronectin, residues 2141-2186 of SEQ ID NO:1 [reference compound]
binding to fibrin-Sepharose (fibrin [6]): did not bind
fibrin binding as single module (fibrin [5]): did not, as a single module, exhibit fibrin-binding
inhibition of biotinylated Fn binding (non-fibrin-binding modules) (fibrin [5]; 0-10 μM competitor, biotinylated Fn 2.3 nM): 10%
